Results published in patent US5214034A, “Catechol derivatives, and preventive and remedial preparations for regressive disorders in the central nervous system containing the same” (priority 1986, dated 1993).
Where two headings read alike, the source gives them in different places. Values belong to the compound of their own block, whether it stands above or below them.

Key:
[1] = tested on: production and secretion of NGF on L-M cells; assay: Promoting action for the production and secretion of NGF on L-M cells of mouse (ELISA); type: cell-based; conditions: for Ratio of NGF increase: 1440 min
Source text: Catecholamines have also been found in a relatively high concentration to accelerate these functions without being mediated by adrenergic receptors [Y. Furukawa et al., J. Biol. Chem., 261, 6039-6047 (1986)].
The compound having a high activity in Table 1, that is, the catechol derivative having a n-alkyl group in the 3 or 4 position on the ring has been observed an acute cell toxicity in higher concentrations. The toxicity was considered the result of two hydroxyl groups in the catechol structure. Then the hydroxyl groups were esterified or etherified and the resulting derivative was examined the effect on the activity for the production and secretion of NGF.
The experiment was performed according to the procedures of Y. Furukawa et al. which is described in J. Bis Chem., 261, 6039-6047 (1986).
The medium was cultured for 3 days at a temperature of 37° C. After completing the confluency (about 10^6 cells/well), the medium was changed to Medium 199 (0.5 ml/well) containing 0.5% bovine serum albumin (Fraction V, a product of Armour Co.). The sample of the derivative is contained in the medium at a prescribed concentration as illustrated in the Tables.

[2] = tested on: production and secretion of NGF in brain astroglial cells; assay: Promoting activity for the production and secretion of NGF in brain astroglial cells of mouse (ELISA)
Method: The experiment was performed by inducing the astroglial cells from mouse forebrain to culture system according to the procedures of S. Furukawa et al. which is described in Biochem. Biophys. Res. Commun., 136, 57-63 (1986).
That is, forebrains of 8-day old mice were dissected out and cut into small pieces. […] Cells and cell clamps were recovered by centrifugation at 200 xg for 5 minutes. They were cultured in Dulbecco modified Eagle's medium (a product of Gibco Co. hereinafter abbreviated as DMEM) containing 10% of fetal calf serum, […] of penicillin, and 50 μg/ml of streptomycin, for 10 to 14 days with medium changes every 3 days. After completing confluency, the cells were dissociated by trypsin treatment and recultured in new culture flasks. This procedure was repeated further twice and more. […] The cells will hereinafter be referred to as astroglial cells.
Astroglial cells were innoculated in 24-well plates having a well surface area of 2.1 cm^2 (a product of Falcon Co.) at a cell density of about 3×10^4 cells/well and cultured for 3 days in DMEM . medium supplemented with 10% of fetal calf serum. After completing confluency about 10^7 cells/well), the medium was changed to DMEM medium (0.5 ml/well) supplemented with 0.5% of bovine serum albumin ((fraction V) and cultured for 3 days. The culture was further continued with medium changes every 3 days. After cells were practically synchronized in the quiscent stage, the medium was changed to 0.5 ml of the medium supplemented with 0.5% of bovine serum albumin and containing a prescribed concentration of test sample as illustrated in Tables. […] Data are expressed as fold increase in NGF content over that in the absence of the test sample. […] Data are presented as means ±SE of four determinations.

Acute toxicity (LD50) = conditions: mouse, in vivo
Method: The catechol derivative having normal type saturated lower alkyl groups on the ring was administered by intravenous injection (i.v.), intraperitoneal injection (i.p.) or oral route (p.o.) to male ddy mice of 4-week old. The LD50 values (mg/kg) were measured by an ordinary method.

[3] = Mus musculus, 24 h, Table 1, 0.03 mM, 24 hours, mean ± SE of four determinations, read-out: Ratio of NGF increase
[4] = Mus musculus, 24 h, Table 1, 0.10 mM, 24 hours, mean ± SE of four determinations, read-out: Ratio of NGF increase
[5] = 24 h, read-out: Ratio of NGF increase, Table 3, 0.10 mM, 24 hours, mean ± SE of four determinations
[6] = 24 h, read-out: Ratio of NGF increase, Table 3, 0.25 mM, 24 hours, mean ± SE of four determinations
[7] = 24 h, read-out: Ratio of NGF increase
[8] = Mus musculus, 24 h, read-out: Ratio of NGF increase
[9] = Mus musculus, 24 h, read-out: Ratio of NGF increase, 24-hr culture
[10] = Mus musculus, 48 h, read-out: Ratio of NGF increase, 48-hr culture

SMILES: CCCc1c(C)ccc(O)c1O [R = Two H, R1 = n-Propyl, R2 = Methyl]
fold induction at 30 µM [1, 3]: 6.09 ± 0.65
fold induction at 100 µM [1, 4]: 6.98 ± 0.51

SMILES: CCCCCc1cccc(O)c1O [R = Two H, R1 = n-Pentyl, R2 = H]
fold induction at 100 µM [2, 5]: 37.2 ± 1.28
fold induction at 250 µM [2, 6]: 51.5 ± 1.4
fold induction at 30 µM [1, 3]: 5.26 ± 0.43
fold induction at 100 µM [1, 4]: 9.95 ± 0.98

SMILES: Cc1ccc2c(c1)OC(C)(C)O2 [C(CH3)2 -, R1 = H, R2 = Methyl, 5,2,2-trimethyl-1,3-benzodioxol]
fold induction at 100 µM ([2]; 24 h, read-out: Ratio of NGF increase, 24-hr culture, Table 4, 0.10 mM, 24-hr culture): 28.6 ± 2.23
fold induction at 250 µM ([2]; 24 h, read-out: Ratio of NGF increase, 24-hr culture, Table 4, 0.25 mM, 24-hr culture): 33.7 ± 2.09
fold induction at 100 µM ([2]; 48 h, read-out: Ratio of NGF increase, 48-hr culture, Table 4, 0.10 mM, 48-hr culture): 41.6 ± 2.21
fold induction at 250 µM ([2]; 48 h, read-out: Ratio of NGF increase, 48-hr culture, Table 4, 0.25 mM, 48-hr culture): 55.2 ± 4.42
fold induction at 30 µM ([1]; Mus musculus, 24 h, Table 2, 0.03 mM, 24-hr culture, read-out: Ratio of NGF increase, 24-hr culture): 1.35 ± 0.12
fold induction at 150 µM ([1]; Mus musculus, 24 h, Table 2, 0.15 mM, 24-hr culture, read-out: Ratio of NGF increase, 24-hr culture): 1.22 ± 0.08
fold induction at 30 µM ([1]; Mus musculus, 48 h, Table 2, 0.03 mM, 48-hr culture, read-out: Ratio of NGF increase, 48-hr culture): 4.33 ± 1.05
fold induction at 150 µM ([1]; Mus musculus, 48 h, Table 2, 0.15 mM, 48-hr culture, read-out: Ratio of NGF increase, 48-hr culture): 3.86 ± 0.84

SMILES: CCCCCc1ccc(O)c(O)c1 [R = Two H, R1 = H, R2 = n-Pentyl]
fold induction at 100 µM [2, 5]: 43.8 ± 4.71
fold induction at 250 µM [2, 6]: 61 ± 5.82
fold induction at 30 µM [1, 3]: 6.37 ± 0.25
fold induction at 100 µM [1, 4]: 10.2 ± 0.71

SMILES: CCc1cccc(O)c1O [R = Two H, R1 = Ethyl, R2 = H]
fold induction at 100 µM [2, 7]: 46.2 ± 3.97
fold induction at 250 µM [2, 7]: 62.8 ± 4.42
fold induction at 30 µM [1, 8]: 9.76 ± 1.4
fold induction at 100 µM [1, 8]: 11.7 ± 2.13

SMILES: COc1ccc(C)cc1OC [R = Two methyl, R1 = H, R2 = Methyl, reference compound]
fold induction at 30 µM [1, 9]: 1.04 ± 0.07
fold induction at 150 µM [1, 9]: 0.98 ± 0.06
fold induction at 30 µM [1, 10]: 1.03 ± 0.07
fold induction at 150 µM [1, 10]: 0.98 ± 0.02

SMILES: CCCCc1c(C)ccc(O)c1O [R = Two H, R1 = n-Butyl, R2 = Methyl]
fold induction at 30 µM [1, 3]: 6.33 ± 0.75
fold induction at 100 µM [1, 4]: 6.9 ± 0.62

Ratio of NGF increase ([1]; Table 1, 0.03 mM, 24 hours, mean ± SE of four determinations, 30 µM): 5.39 ± 0.31 fold
Ratio of NGF increase ([1]; Table 1, 0.10 mM, 24 hours, mean ± SE of four determinations, 100 µM): 5.22 ± 0.27 fold
SMILES: CCc1ccc(O)c(O)c1C [R = Two H, R1 = Methyl, R2 = Ethyl]
fold induction at 100 µM [2, 5]: 50.3 ± 6.27
fold induction at 250 µM [2, 6]: 26.2 ± 2.6
fold induction at 30 µM [1, 3]: 6.31 ± 0.39
fold induction at 100 µM [1, 4]: 3.19 ± 0.73

SMILES: Cc1ccc(O)c(O)c1C [R = Two H, R1 = Methyl, R2 = Methyl]
fold induction at 30 µM [1, 3]: 2.86 ± 0.12
fold induction at 100 µM [1, 4]: 3.11 ± 0.22

SMILES: CCC(C)c1ccc(O)c(O)c1C (stereo not shown) [R = Two H, R1 = Methyl, R2 = sec-Butyl]
fold induction at 30 µM [1, 3]: 6.74 ± 0.25
fold induction at 100 µM [1, 4]: 7 ± 0.76

SMILES: CNC[C@H](O)c1ccc(O)c(O)c1 [l-epinephrine, reference compound]
fold induction at 100 µM ([2]; 24 h, read-out: activity (NGF increase), 0.10 mM): 8.62 ± 1.21
fold induction at 250 µM ([2]; 24 h, read-out: activity (NGF increase), 0.25 mM): 14.6 ± 2.67
fold induction at 50 µM ([1]; Mus musculus, 24 h, read-out: activity (NGF increase), 0.05 mM): 6.29 ± 0.11
fold induction at 150 µM ([1]; Mus musculus, 24 h, read-out: activity (NGF increase), 0.15 mM): 14 ± 0.83

SMILES: Cc1cccc(O)c1O [R = Two H, R1 = Methyl, R2 = H]
fold induction at 100 µM [2, 5]: 76.3 ± 6.34
fold induction at 250 µM [2, 6]: 5.02 ± 1.98
LD50 (Acute toxicity (LD50); ip, read-out: LD50 i.p.): > 200 mg/kg
LD50 (Acute toxicity (LD50); iv, read-out: LD50 i.v.): > 50 mg/kg
LD50 (Acute toxicity (LD50); po, read-out: LD50 p.o.): > 500 mg/kg
fold induction at 30 µM [1, 8]: 8.34 ± 0.82
fold induction at 100 µM [1, 8]: 3.92 ± 1.23
